# Data taken from patent publication US10208082B2, “Sustained-release pharmaceutical composition for treatment and prevention of eye disease” (Daiichi Sankyo Company, Limited, priority 2014, dated 2019).
# What was measured:
# NQO1 = NQO1 assay in Hepa1c1c7 cells; type: cell-based, mouse; conditions: approximately 48 hours culture, mean of 3 wells
# Protocol: Hepa1c1c7 cells (mouse hepatic cell line, ATCC, catalog No. CRL-2026) were cultured (5% CO2, 37° C.). A DMEM (Life Technologies Japan Ltd., catalog No. 11965-092) medium also containing 10% inactivated FBS was used. The medium contained 100 units/mL (final concentration) penicillin and […] (final concentration) streptomycin. The NQO1 assay was conducted according to previous reports (Anal Biochem 1998; 169: 328; and Methods Enzymol 2004; 382: 243).
# The Hepa1c1c7 cells were seeded at 10000 cells/well in a 96-well plate. Approximately 24 hours later, the medium was replaced with a medium containing terpenoid derivative (III), terpenoid derivative (I), or terpenoid derivative (II), and the culture was further performed for approximately 48 hours. A lysis solution (a solution containing 2 mM EDTA and 0.8% digitonin), a reaction solution (a solution containing 0.025 M of tris-HCl, 0.067% of albumin, 0.01% of Tween-20, 2 U/mL of glucose-6-phosphate dehydrogenase, 5 μM of flavin adenine dinucleotide, 1 […], 30 μM of nicotinamide adenine dinucleotide phosphate, 0.03% of 3-(4, 5-dimethyl-2-thiazolyl)-2,5-diphenyltetrazolium bromide (MTT), and 50 μM of menadione), and a stop solution (a solution containing 0.3 mM dicumarol and 5 mM potassium dihydrogen phosphate, pH 7.4) were prepared. After removal of the medium, 50 μL of the lysis solution was added thereto, and the mixture was left standing at 37° C. for 10 minutes. The reaction mixture was further shaken at room temperature for 10 minutes.
# Two hundred uL of the solution was added thereto, and the mixture was left standing at room temperature for 5 minutes. Fifty μL of the stop solution was added thereto, and the absorbance at 490 nm was measured.
# The test results were analyzed using Prism (GraphPad Software, Inc., Ver. 5) to calculate the CD value (concentration of double NQO1 activity) of the concentration at which the activity of NQO1 was increased 2-fold. Each group consisted of 3 wells and indicated as a mean of CD values. […]
# [1] = Pharmacokinetic test of microspheres containing terpenoid derivative (III) in rabbit eye; type: in vivo; conditions: male, Kbl:NZW (white rabbit), intravitreal fluid, other: intravitreal, mean of 4 eyes and SD
# Protocol: Suspensions were prepared using each of terpenoid derivative (III) of the present invention, terpenoid derivative (III) of the present invention-PLA-0005 [prepared by using PLA-0005 as the base material and adjusting the mixing ratio of terpenoid derivative (III) of the present invention and PLA-0005 to 1:9], and terpenoid derivative (III) of the present invention-PLA-0020 [prepared by using PLA-0020 as the base material and adjusting the mixing ratio of terpenoid derivative (III) of the present invention and PLA-0020 to 1:9], and saline as a solvent such that the concentration of terpenoid derivative (III) was 3 mM.
# 50 μL each of the suspensions was intravitreally administered to each white rabbit (Oriental Yeast Co., Ltd., Kbl:NZW, male, 8 weeks old). After the intravitreal administration, the rabbit was euthanized, and the intravitreal fluid and the retina were sampled. The concentration of terpenoid derivative (III) contained in these samples was measured. The numeric values shown in Table 12 below are indicated by a mean from 4 eyes and standard deviation. The drug concentration in each tissue was measured by LC/MS/MS. The tissue was pretreated by dilution with purified water in an amount corresponding to 10 times the weight of the tissue and subsequent homogenization to obtain a measurement sample. A water/acetonitrile (1:1) solution containing an internal standard solution (IS; niflumic acid) was added to the obtained sample to extract the drug. Then, the solution was filtered through a filter and injected to LC/MS/MS.
# The LC/MS/MS conditions were as follows: • <UPLC conditions>: Waters Acquity UPLC • analysis column: ACQUITY UPLC BEH C18 1.7 μm • column temperature: 50° C. • mobile phase A: 95% acetonitrile (5 mM ammonium acetate) • mobile phase B: 5% acetonitrile (5 mM ammonium acetate).
# • <MS/MS conditions>: analysis apparatus API4000 • Ionization mode: ESI • Ion polarity mode: Positive • Monitor Ion • terpenoid derivative (III) (Precursor ion (m/z): 538.5, Product ion (m/z): 460) • IS (Precursor ion (m/z): 283.2, Product ion (m/z): 265).
SMILES,CD value (concentration of double NQO1 activity) (NQO1) [nM],"concentration at 1 day ([1]; Day 1, intravitreal 50 μL of 3 mM suspension) [nM]","concentration at 2 day ([1]; Day 2, intravitreal 50 μL of 3 mM suspension) [nM]","concentration at 7 day ([1]; Day 7, intravitreal 50 μL of 3 mM suspension) [nM]"
COC(=O)[C@@]12CC[C@]3(C)[C@H](C(=O)C=C4[C@@]5(C)C=C(C#N)C(=O)C(C)(C)[C@@H]5CC[C@]43C)[C@@H]1CC(C)(C)[C@@H](O)C2 [terpenoid derivative (I)],0.3,,,
COC(=O)[C@@]12CC[C@]3(C)[C@H](C(=O)C=C4[C@@]5(C)[C@H]6O[C@@]6(C#N)C(=O)C(C)(C)[C@@H]5CC[C@]43C)[C@@H]1CC(C)(C)[C@H](O)C2 [terpenoid derivative (II)],0.1,,,
COC(=O)[C@@]12CC[C@]3(C)[C@H](C(=O)C=C4[C@@]5(C)[C@H]6O[C@@]6(C#N)C(=O)C(C)(C)[C@@H]5CC[C@]43C)[C@@H]1CC(C)(C)[C@@H](O)C2 [terpenoid derivative (III)],1.0,79700 ± 22100,0.1,0.1
